Data from patent US20230310347A1, “BACTERICIDE” (priority 2020, published 2023).

Tests used:
[1] = system: Propionibacterium acnes (GAI 5419); experiment: Bactericidal property (Propionibacterium acnes), number of viable bacteria; assay type: cell-based; conditions: for bactericidal effects against Cutibacterium acnes (in words): each ingredient alone, concentration not given
Procedure: Propionibacterium acnes (GAI 5419) was inoculated on a GAM agar medium (manufactured by Nissui Pharmaceutical Co., Ltd.) and precultured under anaerobic conditions at 35° C.±1° C. for 18 to 24 hours. A solution containing Propionibacterium acnes was prepared by diluting the solution to 10^7 to 10^8 bacteria/mL of Propionibacterium acnes with physiological saline.
Next, 10 mL of the samples obtained in Preparation Example 1 were inoculated with 0.1 mL of the above-mentioned solution containing Propionibacterium acnes. These were stored at room temperature for 30 minutes and then diluted 10-fold with an SCDLP agar medium (manufactured by Nihon Pharmaceutical Co., Ltd.) and neutralized. These were poured onto a GAM agar medium (manufactured by Nissui Pharmaceutical Co., Ltd.) according to the pour plate culture method, and anaerobically cultured at 35° C.±1° C. for 2 to 5 days. After that, the numbers of viable bacteria were determined from the numbers of colonies formed and the dilution factor. It is noted that physiological saline was used for the control in place of the samples.
The numbers of viable bacteria were determined in the same manner as Experiment Example 1-1 except that the samples obtained in Preparation Example 1 were changed to the samples obtained in Preparation Example 2.
The numbers of viable bacteria were determined in the same manner as Experiment Example 1-1 except that the samples obtained in Preparation Example 1 were changed to the above-mentioned Samples α30 to α33.
Furthermore, Sample β20 (100 μg/mL of Hinokitiol+100 μg/mL of linalool) was prepared in the same manner as Sample al except that tea tree oil was changed to linalool.

[2] = Storage stability of ingredient (B) alone or mixed with Hinokitiol, GC area percentage; assay type: physicochemical
Procedure: The storage stability of limonene alone and the storage stability of limonene mixed with Hinokitiol were evaluated.
Specifically, limonene was placed in a glass vial, which was hermetically sealed by tightening a septum with an aluminum cap.
Furthermore, 50 parts by mass of limonene and 50 parts by mass of Hinokitiol were mixed, placed in a glass vial different from the above-described glass vial, and hermetically sealed by tightening a septum with an aluminum cap. These two samples were stored at 60° C. for 7 days, and the area percentage of limonene in the glass vials was measured by GC (the instrument: GC-2010 Plus manufactured by Shimadzu Corporation; the detector: flame ionization detector; the column: DB-624 manufactured by Agilent Technologies Japan, Ltd.) immediately after the start of the experiment, after 1 day, after 4 days, and after 7 days. The initial data (immediately after the start of the experiment) was the GC measurement result of limonene alone.
Regarding α-terpinene, γ-terpinene, and terpinen-4-ol, the storage stability of each of these alone and the storage stability of each of these mixed with Hinokitiol were evaluated.
Specifically, measurements were made in the same manner as Experiment Example 6-1 except that limonene was changed to α-terpinene, γ-terpinene, and terpinen-4-ol, respectively. It is noted that, regarding γ-terpinene, GC measurements were only made immediately after the start of the experiment, after one day, and after seven days.

[3] = 60° C., After 1 day, Hinokitiol Absent
[4] = 60° C., After 1 day, Hinokitiol Present (50:50 parts by mass)
[5] = 60° C., After 4 days, Hinokitiol Absent
[6] = 60° C., After 4 days, Hinokitiol Present (50:50 parts by mass)
[7] = 60° C., After 7 days, Hinokitiol Absent
[8] = 60° C., After 7 days, Hinokitiol Present (50:50 parts by mass)
[9] = Immediately after the start of the experiment, Hinokitiol Absent
[10] = Immediately after the start of the experiment, Hinokitiol Present (initial data = GC result of ingredient alone)

## CC(C)c1cccc(=O)c(O)c1 [Hinokitiol]
[1]; 100 μg/mL, Tables 1 and 2
  bactericidal effects against Propionibacterium acnes (in words): insufficient bactericidal effects
[1]; 50 βg/mL, Table 5
  bactericidal effects against Propionibacterium acnes (in words): insufficient bactericidal effects

## (+)-Limonene
[1]; 100 μg/mL, Tables 1 and 2
  bactericidal effects against Propionibacterium acnes (in words): no bactericidal effects
[1]; 50 βg/mL, Table 5
  bactericidal effects against Propionibacterium acnes (in words): no bactericidal effects
[1]
  bactericidal effects against Cutibacterium acnes (in words): almost no bactericidal effects
[2]; [3]
  residual ratio (area percentage (%)): 95.67%
[2]; [4]
  residual ratio (area percentage (%)): 96.49%
[2]; [5]
  residual ratio (area percentage (%)): 95.45%
[2]; [6]
  residual ratio (area percentage (%)): 96.57%
[2]; [7]
  residual ratio (area percentage (%)): 94.43%
[2]; [8]
  residual ratio (area percentage (%)): 96.41%
[2]; [9]
  residual ratio (area percentage (%)): 96.85%
[2]; [10]
  residual ratio (area percentage (%)): 96.85%
[2]; when combined with a phenol derivative typified by Hinokitiol, Tables 10 to 13
  storage stability (in words): superior storage stability

## CC1=CC=C(C(C)C)CC1 [α-Terpinene, α-terpinene]
[1]; 100 μg/mL, Tables 1 and 2
  bactericidal effects against Propionibacterium acnes (in words): no bactericidal effects
[1]; 50 βg/mL, Table 5
  bactericidal effects against Propionibacterium acnes (in words): no bactericidal effects
[1]
  bactericidal effects against Cutibacterium acnes (in words): almost no bactericidal effects
[2]; [3]
  residual ratio (area percentage (%)): 85.27%
[2]; [4]
  residual ratio (area percentage (%)): 82.68%
[2]; [5]
  residual ratio (area percentage (%)): 81.54%
[2]; [6]
  residual ratio (area percentage (%)): 77.11%
[2]; [7]
  residual ratio (area percentage (%)): 78.45%
[2]; [8]
  residual ratio (area percentage (%)): 70.49%
[2]; [9]
  residual ratio (area percentage (%)): 89.95%
[2]; [10]
  residual ratio (area percentage (%)): 89.95%

## CC1=CCC(C(C)C)=CC1 [γ-Terpinene, γ-terpinene]
[1]; 100 μg/mL, Tables 1 and 2
  bactericidal effects against Propionibacterium acnes (in words): no bactericidal effects
[1]; 50 βg/mL, Table 5
  bactericidal effects against Propionibacterium acnes (in words): no bactericidal effects
[1]
  bactericidal effects against Cutibacterium acnes (in words): almost no bactericidal effects
[2]; [3]
  residual ratio (area percentage (%)): 92.09%
[2]; [4]
  residual ratio (area percentage (%)): 92.22%
[2]; [7]
  residual ratio (area percentage (%)): 85.49%
[2]; [8]
  residual ratio (area percentage (%)): 84.44%
[2]; [9]
  residual ratio (area percentage (%)): 96.81%
[2]; [10]
  residual ratio (area percentage (%)): 96.81%

## CC1=CCC(O)(C(C)C)CC1 (stereo not shown) [Terpinen-4-ol, terpinen-4-ol]
[1]; 100 μg/mL, Tables 1 and 2
  bactericidal effects against Propionibacterium acnes (in words): insufficient bactericidal effects
[1]; 50 βg/mL, Table 5
  bactericidal effects against Propionibacterium acnes (in words): insufficient bactericidal effects
[1]
  bactericidal effects against Cutibacterium acnes (in words): insufficient
[2]; [3]
  residual ratio (area percentage (%)): 92.86%
[2]; [4]
  residual ratio (area percentage (%)): 97.13%
[2]; [5]
  residual ratio (area percentage (%)): 84.09%
[2]; [6]
  residual ratio (area percentage (%)): 96.83%
[2]; [7]
  residual ratio (area percentage (%)): 74.45%
[2]; [8]
  residual ratio (area percentage (%)): 96.52%
[2]; [9]
  residual ratio (area percentage (%)): 96.94%
[2]; [10]
  residual ratio (area percentage (%)): 96.94%

## Cc1cc(O)ccc1C(C)C [Isopropylmethylphenol, 4-isopropyl-3-methylphenol]
[1]; 100 μg/mL, Tables 1 and 2
  bactericidal effects against Propionibacterium acnes (in words): insufficient bactericidal effects
